Measurements reported in patent publication US20060127432A1, “Surface treatment for wood and wood products” (priority 2002, published 2006).
Marks after values point to notes of the source that are not given here.

Legend:
[1] = test system: workers who handled the treated timber; assay: OH&S testing, handling of treated timber; assay type: in vivo
Source text: (§1) Until this invention, adequately protecting timber against termite attack required a treatment which provided significant penetration of the sapwood. This was the case due to the fact that other available active ingredients degraded very quickly when exposed to increased temperature and Ultra Violet (UV) light. The penetration was required to protect the active ingredient (“active”) from the degradation. The most common used active in the 1990's which penetrated the timber was Permethrin. […] Thus, when using Permethrin, it was required to penetrate into the timber otherwise the product would degrade and not protect the timber. […] This problem was so severe that it made the use of Deltamethin unviable.
(§2) This increased stability together with the repellent effects of Bifenthrin combined to allow only a superficial treating of the timber where the need for significant penetration is not required.

[2] = Degradation on exposure to temperature and UV light; assay type: physicochemical
Source text: as §1, §2

Mastotermes darwiniensis [3] = assay: Field drum test (AWPA protocols), treated radiata pine exposed to termites; assay type: in vivo; design: Mean score: scale not given here; conditions: for Mean score / Pass or Fail: radiata pine, field
Protocol: (§3) The rates required to achieve protection are 4 and 23 g/m3 applied on the surface of 35×90 mm radiata pine for Coptotermes acinaciformis and Mastotermes darwiniensis respectively. These studies were conducted using the drum test described by the AWPA protocols.

[4] = test system: Coptotermes acinaciformis; assay: as above; assay type: in vivo; design: key to Mean rating: 1: Sound; 2: Superficial attack-grazing; Penetration - >3 mm in depth; 4: Attack Slight −10-25% mass loss; Attack Moderate 25-50% mass loss; 6: Attack Severe 50-70% mass loss; Attack Destroyed 75-100% mass loss; conditions: for Mean rating / Pass or Fail / Success (Pass or Fail): radiata pine, field
Protocol: as §3
Additives can be incorporated during the application of bifenthrin, for example colors, fire retardants, water repellents and resins.
A modification of superficial treatments is the partial introduction of bifenthrin into the wood. The result of this is an envelope around the cross section of the timber board or wood product or just a partial penetration.

Solubility in water = assay type: physicochemical
Source text: (§4) These two attributes of bonding & water insolubility, together with the abovementioned stability when exposed to temperature and UV result in the chemical staying on the timber when exposed to rain, sunlight, temperature or handling. No other chemicals used in the past have such characteristics which would allow a mere superficial treatment.

termites = assay: Simulated house frames exposed to 120,000 termites; assay type: in vivo; conditions: superficial treatment, ends not treated; six months of exposure, 120,000 termites
Source text: The ends of the samples were not treated. Simulated frames were exposed to 120,000 termites.

Bonding to timber = assay type: physicochemical; conditions: compared with Permethrin
Source text: as §4

Mastotermes darwiniensis [5] = assay: Timber protection using standard practice in the timber industry; assay type: in vivo
Source text: (§5) The rates are 5 and 20 g/m3 respectively.

[6] = test system: Coptotermes acinaciformis; assay: as above; assay type: in vivo
Source text: as §5

[7] = 15 g/m^3, superficial treatment
[8] = 23 g/m^3, superficial treatment
[9] = 38 g/m^3, superficial treatment
[10] = applied on the surface of 35×90 mm radiata pine (dipping or spraying)
[11] = 4 g/m^3 + water repellents, superficial treatment
[12] = 8 g/m^3 + water repellents, superficial treatment
[13] = 15 g/m^3 + water repellents, superficial treatment
[14] = 23 g/m^3 + water repellents, superficial treatment
[15] = Partial penetration more than 3 mm, 6-12 g/m^3
[16] = Partial penetration more than 3 mm, 13-20 g/m^3

In the case of `CC1(C)[C@H](C(=O)O[C@H](C#N)c2cccc(Oc3ccccc3)c2)[C@@H]1C=C(Br)Br` [Deltamethrin], the “Skin irritation / parasthesia on exposure to treated timber” value [1] is reported as “all workers who handled the treated timber complained of a parasthesia or skin irritation” and the “Resistance to UV light” value [2] is reported as “degrade rapidly when exposed to UV light”.
For `CC1(C)C(C=C(Cl)Cl)C1C(=O)OCc1cccc(Oc2ccccc2)c1` (stereo not drawn) [permethrin, Permethrin], the “Resistance to UV light” value [2] was “very low resistance to UV light”, the “Degradation on exposure to temperature” value ([2]; heat) was “degrade when exposed to temperatures above 25 degrees centigrade” and the Mean score (Mastotermes darwiniensis [3]; 0.02% m/m permethrin (LOSP)) was 1.8. For the same compound, the “Pass or Fail” value (Mastotermes darwiniensis [3]; 0.02% m/m permethrin (LOSP)) was “Pass”, the Mean score (Mastotermes darwiniensis [3]; .007% m/m permethrin (LOSP)) was 2.2 and the “Pass or Fail” value (Mastotermes darwiniensis [3]; .007% m/m permethrin (LOSP)) was “Fail”. The Mean score (Mastotermes darwiniensis [3]; .013% m/m permethrin (LOSP)) was 2.2, the “Pass or Fail” value (Mastotermes darwiniensis [3]; .013% m/m permethrin (LOSP)) was “Fail” and the Mean rating ([4]; 0.007% m/m OD permethrin) was 2. The “Pass or Fail” value ([4]; 0.007% m/m OD permethrin) was “Fail”, the Mean rating ([4]; 0.013% m/m OD permethrin) was 1.8 and the “Pass or Fail” value ([4]; 0.013% m/m OD permethrin) was “Fail”. The Mean rating ([4]; 0.02% m/m OD permethrin) was 1.3 and the “Pass or Fail” value ([4]; 0.02% m/m OD permethrin) was “Pass”.
In the case of `Cc1c(COC(=O)[C@@H]2[C@H](/C=C(\Cl)C(F)(F)F)C2(C)C)cccc1-c1ccccc1` (racemic) [Bifenthrin], the “Skin irritation / parasthesia on exposure to treated timber” value [1] is reported as “does not produce any skin irritation”, the “Degradation through exposure to UV or heat” value ([2]; superficially treated timber) is reported as “significant penetration was not required to protect the active against degradation” and the Mean score (Mastotermes darwiniensis [3]; 4 g/m^3, superficial treatment) is reported as 3.3. The “Pass or Fail” value (Mastotermes darwiniensis [3]; 4 g/m^3, superficial treatment) was “Fail”, the Mean score (Mastotermes darwiniensis [3]; 8 g/m^3, superficial treatment) was 2.2 and the “Pass or Fail” value (Mastotermes darwiniensis [3]; 8 g/m^3, superficial treatment) was “Fail”. For the same compound, the Mean score (Mastotermes darwiniensis [3]; [7]) was 2.0, the “Pass or Fail” value (Mastotermes darwiniensis [3]; [7]) was “Fail” and the Mean score (Mastotermes darwiniensis [3]; [8]) was 1.7. The “Pass or Fail” value (Mastotermes darwiniensis [3]; [8]) was “Pass”, the Mean score (Mastotermes darwiniensis [3]; [9]) was 1.0 and the “Pass or Fail” value (Mastotermes darwiniensis [3]; [9]) was “Pass”. The “Rate required to achieve protection” value (Mastotermes darwiniensis [3]; [10]) was 23 g/m3, the Solubility in water (Solubility in water) was “virtually insoluble in water” and the Mean rating [4, 11] was 1.2. For the same compound, the “Success (Pass or Fail)” value [4, 11] was “Pass”, the Mean rating [4, 12] was 1.3 and the “Success (Pass or Fail)” value [4, 12] was “Pass”. The Mean rating [4, 13] was 1.2^b, the “Success (Pass or Fail)” value [4, 13] was “Pass” and the Mean rating [4, 14] was 1.2. The “Success (Pass or Fail)” value [4, 14] was “Pass”, the Mean rating [4, 15] was 1.0 and the “Success (Pass or Fail)” value [4, 15] was “Pass”. The Mean rating [4, 16] was 1.0, the “Success (Pass or Fail)” value [4, 16] was “Pass” and the “Repellent effect with added water repellents” value ([4]; addition of water repellents) was “did not mask the repellent effect”. The “Rate required to achieve protection” value [4, 10] was 4 g/m3, the “Attack of simulated frames” value (termites) was “the treated frames were not” and the Bonding co-efficient (Bonding to timber) was “significantly greater than that of Permethrin”. For the same compound, the “Rate required to protect timber” value (Mastotermes darwiniensis [5]) was 20 g/m3 and the “Rate required to protect timber” value [6] was 5 g/m3.
